Measurements from PubChem BioAssay (NCI).
“And” between values parts separate entries of the source, which are not always exact repeats. Equal values may be shown once.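 Growth conditions: 96-well plates. Treatment: test compound, 48 hours, 5 concentrations. Analysis: linear interpolation between bracketing concentrations; unreached endpoints set to highest concentration. GI50 marks 50% less growth. TGI denotes the concentration required for complete inhibition of growth.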

Legend:
Assay in all cases: inhibition of tumour cell growth, NCI panel, 48 h
HS 578T breast = tested on: HS 578T breast
LOX IMVI melanoma = tested on: LOX IMVI melanoma
MCF7 breast = tested on: MCF7 breast
MDA-MB-231 breast = tested on: MDA-MB-231 breast
OVCAR-4 ovarian = tested on: OVCAR-4 ovarian
SW-620 colon = tested on: SW-620 colon
T-47D breast = tested on: T-47D breast

Structure (SMILES) | TGI (HS 578T breast) | TGI (LOX IMVI melanoma) | TGI (MCF7 breast) | TGI (MDA-MB-231 breast) | TGI (OVCAR-4 ovarian) | TGI (SW-620 colon) | TGI (T-47D breast) | GI50 (HS 578T breast) | GI50 (LOX IMVI melanoma) | GI50 (MCF7 breast) | GI50 (MDA-MB-231 breast) | GI50 (OVCAR-4 ovarian) | GI50 (SW-620 colon) | GI50 (T-47D breast)
COC(=O)Nc1nc2ccc(C(=O)c3ccc[nH]3)cc2[nH]1 | > 100 µM | > 100 µM | > 100 µM | > 100 µM | > 100 µM | > 100 µM | > 100 µM | – | – | – | – | – | – | –
O=c1c(Cl)nnc2sc3ccccc3n12 | > 100 µM | 64.5 µM | > 100 µM | > 100 µM | > 100 µM | > 100 µM | – | 85.4 µM | 30.5 µM | 33.6 µM | 14.2 µM | 46.9 µM | 47.7 µM | –
COc1cc[nH]c1/C=C1\C(=O)Nc2ccc(F)c(C#C[C@@H](O)[C@@H](N)[C@@H](C)O)c21 | 1.68 µM | 2.5 µM | 4.3 µM | 2.37 µM | 6.85 µM | 3.07 µM | 6.07 µM | 0.381 µM | 0.516 µM | 0.545 µM | 0.485 µM | 0.671 µM | 0.559 µM | 0.993 µM
O=C(Nc1ccncc1)C(=O)c1cn(S(=O)(=O)c2ccc(Br)cc2)c2ccccc12 | > 100 µM | > 100 µM | – | 83 µM | > 100 µM | > 100 µM | > 100 µM | > 100 µM | 7.49 µM | – | 10.2 µM | 15.1 µM | 4.18 µM | 7.74 µM
C[C@@H](c1ccc2nccn2c1)n1nnc2ncc(-c3cnn(C)c3)nc21 | > 100 µM | > 100 µM | > 100 µM | > 100 µM | > 100 µM | > 100 µM | > 100 µM | > 100 µM | > 100 µM | > 100 µM | > 100 µM | 65.1 µM | > 100 µM | 53 µM
COc1ccccc1C(=O)/C=C/c1cc2cccc(OC)c2[nH]c1=O | 10.8 µM | 0.724 µM | 4.12 µM | 1.79 µM | 8.37 µM | 1.56 µM | 12.8 µM | 0.0163 µM | 0.0262 µM | 0.0358 µM | 0.151 µM | 0.314 µM | 0.0158 µM | 0.626 µM
COc1cc(CCc2cc(NC(=O)c3ccc(N4C[C@@H](C)N[C@@H](C)C4)cc3)n[nH]2)cc(OC)c1 | > 10 µM and 14.4 µM | > 10 µM and 10.3 µM | > 10 µM and 15.8 µM | > 10 µM and 19.7 µM | > 10 µM and 18.5 µM | > 10 µM and 15.6 µM | > 10 µM and 31.6 µM | 1.12 µM and 2.44 µM | 2.93 µM and 2.66 µM | 3.29 µM and 2.85 µM | > 10 µM and 5.81 µM | > 10 µM and 3.73 µM | 6.49 µM and 3.5 µM | > 10 µM and 15.3 µM
COc1cc(O)c(C(=O)/C=C/c2ccccc2)c(OC)c1 | 18.2 µM | 6.36 µM | 24.2 µM | 24.2 µM | 26.8 µM | 23.8 µM | 24.6 µM | – | – | – | – | – | – | –
CC1(C)CC(=O)C2=C(C1)NC(SSC1=C(C#N)C(c3ccccc3)C3=C(CC(C)(C)CC3=O)N1)=C(C#N)C2c1ccccc1 (stereo not drawn) | 68.1 mg/L | 49.3 mg/L | 85.6 mg/L | 45.1 mg/L | 44.8 mg/L | 51.8 mg/L | 62.4 mg/L | 30.5 mg/L | 27.2 mg/L | 35.6 mg/L | 23.4 mg/L | 23.6 mg/L | 28.6 mg/L | 30.7 mg/L
O=[N+]([O-])c1ccc(Sc2ncccn2)c([N+](=O)[O-])c1 | 18 µM | 15 µM | 17.7 µM | 17.1 µM | 13.5 µM | 8.05 µM | 15 µM | 3.83 µM | 4.3 µM | 3.68 µM | 5.31 µM | 2.96 µM | 2.9 µM | 3.01 µM
O=C1C=C[C@]2(C[C@@H](c3cccc(C(F)(F)F)c3)O[C@@H](c3cccc(C(F)(F)F)c3)O2)O1 | 60.7 µM | 1.71 µM | 3.68 µM | 6.29 µM | 19.3 µM | 5.14 µM | 3.96 µM | 12.2 µM | 0.433 µM | 0.389 µM | 2.15 µM | 5.24 µM | 1.76 µM | 1.1 µM
Cc1ccc(S(=O)(=O)NC(CCC(=O)Nc2ccc(Cl)cc2)C(=O)Nc2ccc(Cl)cc2)cc1 (stereo not drawn) | 7.5 µM | 5.63 µM | 6.51 µM | 4.23 µM | 3.46 µM | 8.59 µM | 2.64 µM | 1.32 µM | 0.258 µM | 0.287 µM | 0.263 µM | 0.775 µM | 0.555 µM | 0.151 µM
O=C1CC(=O)N(C2CCCCC2)C(=O)N1c1ccccc1S(=O)(=O)Oc1ccccc1 | – | 7.69 µM | > 100 µM | > 100 µM | > 100 µM | > 100 µM | > 100 µM | – | – | – | – | – | – | –
Cc1cc(NC(=O)C2c3ccccc3C(=O)N(CC(C)C)C2c2cccs2)no1 (stereo not drawn) | > 100 µM | > 100 µM | > 100 µM | 93.4 µM | > 100 µM | > 100 µM | > 100 µM | 86.7 µM | > 100 µM | 60 µM | 21.2 µM | 31.3 µM | > 100 µM | > 100 µM
O=C(c1cccs1)c1c(C(F)(F)F)n([O-])c2ccc(C(F)(F)F)cc2[n+]1=O | – | 0.127 µM | 0.787 µM | 0.357 µM | 0.531 µM | 0.325 µM | 1.43 µM | – | 0.0571 µM | 0.294 µM | 0.189 µM | 0.224 µM | 0.162 µM | 0.51 µM
OB([O][Hg][c]1ccccc1)[O][Hg][c]1ccccc1 | – | 0.366 µM | – | 1.89 µM | 2.01 µM | 0.5 µM | – | – | 0.173 µM | – | 0.628 µM | 0.334 µM | 0.191 µM | –
COc1cc(-c2cc(C(=O)N3CCN(C(=O)c4ccccc4NCc4ccco4)CC3)nc3cc(-c4ccccc4)nn23)cc(OC)c1OC | > 29.3 µM | > 100 µM | > 100 µM | > 100 µM | > 100 µM | > 100 µM | > 100 µM | 3.1 µM | 4.01 µM | 0.92 µM | 5.11 µM | > 26.1 µM | 2.62 µM | 2.94 µM
COc1ccc(-c2cc(-c3ccc(Nc4nc(Nc5ccc(Cl)cc5)nc(Nc5ccc(Cl)cc5)n4)cc3)nc(N)c2C#N)cc1 | 5.68 µM | 2.73 µM | > 32.3 µM | 3.23 µM | > 100 µM | 1.37 µM | 5.39 µM | 1.48 µM | 1.4 µM | 2.59 µM | 1.54 µM | 2.51 µM | 0.666 µM | 0.894 µM
